Experiments:
Assay in all cases: relative viability (nuclei count vs DMSO), 5 days (fraction); higher = more cells survive
Bemcentinib + Linsitinib = compound: Nc1nc(Nc2ccc3c(c2)CC[C@@H](N2CCCC2)CC3)nn1-c1cc2c(nn1)-c1ccccc1CCC2 [Bemcentinib] + C[C@]1(O)C[C@@H](c2nc(-c3ccc4ccc(-c5ccccc5)nc4c3)c3c(N)nccn32)C1 [Linsitinib] (partner 1 µM)
Summary of the method: (§1)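 A single step with final 0.05% Triton X-100, 1% formaldehyde and 1 ug/ml Hoechst fixed the cells and stained nuclei 5 days after treatment. Lung cancer cell lines in 1536-well plates had been treated by pin tool the day after seeding with one drug alone or a fixed anchor-drug dose plus five library-drug doses (not always all listed) in √10 steps, and nuclei were counted on 4× images. Relative viability is the ratio of nuclei in treated wells to nuclei in vehicle wells, taken as the median of duplicate plates.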

Axitinib + Olaparib = compound: CNC(=O)c1ccccc1Sc1ccc2c(/C=C/c3ccccn3)n[nH]c2c1 [Axitinib] + O=C(c1cc(Cc2n[nH]c(=O)c3ccccc23)ccc1F)N1CCN(C(=O)C2CC2)CC1 [Olaparib] (partner 8 µM)
Summary of the method: as §1

Bemcentinib + Crizotinib = compound: Nc1nc(Nc2ccc3c(c2)CC[C@@H](N2CCCC2)CC3)nn1-c1cc2c(nn1)-c1ccccc1CCC2 [Bemcentinib] + C[C@@H](Oc1cc(-c2cnn(C3CCNCC3)c2)cnc1N)c1c(Cl)ccc(F)c1Cl [Crizotinib] (partner 1 µM)
Summary of the method: as §1

[1] = compound: CC1=CC=C(C=C1)C(=O)CN2C3=C(CCCC3)SC2=N [Pifithrin_alpha] + Nc1ncn([C@H]2C[C@H](O)[C@@H](CO)O2)c(=O)n1 [Decitabine] (partner 2 µM)
Summary of the method: as §1

Cell Line | relative viability (Bemcentinib + Linsitinib; first compound 0.04 µM) | relative viability (Bemcentinib + Linsitinib; first compound 0.1265 µM) | relative viability (Bemcentinib + Linsitinib; first compound 0.4 µM) | relative viability (Bemcentinib + Linsitinib; first compound 1.265 µM) | relative viability (Bemcentinib + Linsitinib; first compound 4 µM) | relative viability (Axitinib + Olaparib; first compound 0.005 µM) | relative viability (Axitinib + Olaparib; first compound 0.01581 µM) | relative viability (Axitinib + Olaparib; first compound 0.05 µM) | relative viability (Axitinib + Olaparib; first compound 0.1581 µM) | relative viability (Axitinib + Olaparib; first compound 0.5 µM) | relative viability (Bemcentinib + Crizotinib; first compound 0.04 µM) | relative viability (Bemcentinib + Crizotinib; first compound 0.1265 µM) | relative viability (Bemcentinib + Crizotinib; first compound 0.4 µM) | relative viability (Bemcentinib + Crizotinib; first compound 1.265 µM) | relative viability (Bemcentinib + Crizotinib; first compound 4 µM) | relative viability ([1]; first compound 1 µM) | relative viability ([1]; first compound 3.162 µM) | relative viability ([1]; first compound 10 µM) | relative viability ([1]; first compound 31.62 µM) | relative viability ([1]; first compound 100 µM)
NCI-H1437 | 1.03 | 1.14 | 1.16 | 1.12 | 1.18 | 0.677 | 0.623 | 0.62 | 0.611 | 0.629 | 0.931 | 1.04 | 0.972 | 0.984 | 0.967 | 0.626 | 0.605 | 0.563 | 0.586 | 0.364
NCI-H1651 | 0.958 | 0.965 | 1.15 | 1.15 | 1.08 | 0.194 | 0.19 | 0.198 | 0.175 | 0.206 | 0.886 | 0.882 | 0.873 | 0.905 | 0.878 | 0.166 | 0.642 | 0.569 | 0.537 | 0.635
NCI-H1666 | 0.932 | 0.872 | 0.958 | 0.972 | 0.707 | 0.741 | 0.756 | 0.7 | 0.765 | 0.728 | 1.01 | 0.889 | 0.963 | 0.861 | 0.89 | 0.523 | 0.595 | 0.557 | 0.615 | 0.569
NCI-H1734 | 0.856 | 0.913 | 0.952 | 1.01 | 0.836 | 0.593 | 0.571 | 0.62 | 0.585 | 0.747 | 0.686 | 0.691 | 0.669 | 0.667 | 0.698 | 0.497 | 0.463 | 0.502 | 0.441 | 0.556
NCI-H1755 | 1.03 | 1.02 | 1.04 | 1.04 | 1.11 | 0.897 | 0.867 | 0.852 | 0.847 | 0.852 | 0.901 | 0.878 | 0.838 | 0.939 | 0.901 | 0.74 | 0.632 | 0.731 | 0.593 | 0.729
NCI-H1792 | 0.539 | 0.441 | 0.676 | 0.645 | 0.556 | 0.458 | 0.445 | 0.576 | 0.485 | 0.651 | 1.02 | 1.2 | 1.26 | 0.965 | 0.957 | 0.457 | 0.48 | 0.624 |  | 0.423
NCI-H1915 | 1.05 | 1.13 | 1.1 | 1.11 | 1.1 | 0.28 | 0.255 | 0.243 | 0.234 | 0.284 | 0.957 | 1.03 | 0.911 | 0.96 | 0.989 | 0.27 | 0.254 | 0.249 |  | 0.224
NCI-H1944 | 1.25 | 1.08 | 1.28 | 1.16 | 1.1 | 0.469 | 0.397 | 0.384 | 0.402 | 0.427 | 1.13 | 1.11 | 1.17 | 1.18 | 1.1 | 0.406 | 0.461 | 0.39 | 0.337 | 0.343
NCI-H1975 | 0.981 | 1.03 | 1.03 | 1.06 | 1.02 | 0.822 | 0.816 | 0.859 | 0.774 | 0.805 | 1.07 | 1.23 | 1.07 | 1.1 | 1.17 | 0.663 | 0.339 | 0.306 | 0.311 | 0.279
NCI-H1993 | 0.699 | 0.735 | 0.776 | 0.773 | 0.804 | 1 | 1.12 | 1.04 | 1.01 | 1.04 | 0.913 | 0.966 | 0.876 | 1.03 | 1.1 | 0.514 | 0.494 | 0.609 | 0.467 | 0.505
NCI-H2009 | 1.21 | 1.25 | 1.14 | 1.17 | 1.21 | 0.724 | 0.686 | 0.698 | 0.722 | 0.819 | 1.01 | 1.08 | 1.11 | 0.951 | 1.05 | 0.361 | 0.349 | 0.404 | 0.344 | 0.409
NCI-H2023 | 0.689 | 0.721 | 0.821 | 0.877 | 0.678 | 0.528 | 0.487 | 0.495 | 0.555 | 0.574 | 0.648 | 0.653 | 0.723 | 0.6 | 0.599 | 0.237 | 0.211 | 0.23 | 0.201 | 0.242
NCI-H2085 | 0.842 | 0.977 | 0.837 | 0.9 | 0.855 | 0.775 | 0.769 | 0.807 | 0.758 | 0.787 | 0.836 | 0.802 | 0.753 | 0.803 | 0.919 | 0.523 | 0.419 | 0.473 | 0.473 | 0.503
NCI-H2087 | 0.957 | 0.975 | 1.09 | 0.891 | 1.09 | 0.741 | 0.503 | 0.642 | 0.549 | 0.661 | 0.827 | 0.982 | 0.942 | 0.999 | 1.05 | 0.252 | 0.291 | 0.262 | 0.203 | 0.267
NCI-H2126 | 0.706 | 0.693 | 0.659 | 0.76 | 0.781 | 0.913 | 0.907 | 0.884 | 0.917 | 0.944 | 1.05 | 1.1 | 1.01 | 1.03 | 1.02 | 0.518 | 0.594 | 0.576 | 0.49 | 0.548
NCI-H2347 | 0.959 | 1.04 | 0.943 | 0.951 | 0.871 | 0.592 | 0.629 | 0.575 | 0.65 | 0.557 | 0.783 | 1.01 | 0.612 | 0.669 | 0.627 | 0.576 | 0.685 | 0.603 | 0.65 | 0.698
